Assay results reported in article PMC13242511, “Disrupting Notch signalling by a small molecule inhibiting dihydroorotate dehydrogenase activity” (Scientific Reports, 2026).
Several values for one entry are separate records, joined by “and”; a condition that tells them apart may be missing. Equal values may be shown once.

Tested on: C2C12 cells
Experiment: C2C12 myogenic assay
Type: cell-based
Design: key to myogenic assay: + indicates that the compound had an effect; -: − indicates that there was no significant effect in the respective assay; key to mean fusion index: ratio of nuclei fused per area to total nuclei in field
Conditions: for MYH4 (MFI) / fusion index, % of DMSO control: Fig. 5, equals mean of the two '% of control' values of the 4th table; for mean MFI / ratio MFI/MBI: MYH4; for ratio MFI/MBI / ratio nuclei %: single images; for myogenic diff.: overview in comparison to compound C, Supplemental Fig. 9; for myogenic assay: summary Fig. 8E
Description: To corroborate their status as Notch inhibitors, we tested four of the five compounds (A, C, D, E) in an orthogonal assay for Notch function. Notch signalling plays an important role in myogenic differentiation, and blocking Notch signalling promotes myogenic differentiation in the myoblast cell line C2C12[27] (Fig. 5A). C2C12 cells can be maintained as myoblasts but upon serum starvation spontaneously differentiate to MYH4-positive multinucleated myotubes, a process which is accelerated by Notch blockade.
8000 C2C12 cells were seeded on gelatin (0.1%, Sigma-Aldrich, cat #G2500) coated cover slides (BD Bioscience) and cultivated in proliferation medium. For gelatin coating, 8-well cover slide chambers (BD Bioscience) were incubated for 60 min with 0.1% gelatin in PBS. The remaining liquid was aspirated, and gelatin was allowed to dry for 24 h. Cover slides were stored at 4 °C until use. Upon reaching 85% confluence cell culture medium was exchanged to differentiation medium to enhance differentiation into myocytes/myotubes. Cells were then treated with 10 µM of the respective compound for five days and DMSO-treated cells served as a base-line control. Next, cells were washed with 1 × cold PBS (ThermoFisher, cat #10010023) fixed with 4% paraformaldehyde (PFA, Sigma-Aldrich, cat #1.00496) in PBS for 10 min at room temperature and washed again with 1 × PBS. Fixed cells were either stored at 4 °C in PBS or directly processed for immunocytochemistry staining: For immunocytochemistry, cells were permeabilized for 10 min in 0.1% TritonX-100 / PBS, then washed in PBS and unspecific bindings sites were blocked in protein free blocking solution (DAKO, cat # × 0909) for 30 min at room temperature, followed by two times washing in PBS. Then, cells were incubated with primary antibody MYH4 (ThermoFisher) in blocking solution and 0.1% TritonX-100 in PBS for 1 h at room temperature. Next, cells were washed three times in PBS and incubated with secondary Alexa fluorophore coupled antibody (Invitrogen) in a 1:400 dilution. Labeling of F-actin filaments was conducted by phalloidin-TRITC (Sigma-Aldrich, cat # P1951) in a 1:2500 dilution. Cells were washed three times in PBS and incubated with DAPI (BD Bioscience cat # 564907) for 5 min at room temperature to stain DNA/nuclei. Finally, slides were fixed with mounting medium (ProLong Antifade mounting medium, ThermoFisher, cat #P36934). Bright field and immunocytochemistry images were taken using the SP8 LSM (Leica) at different magnifications and images were recorded as Z-stacks. Images were processed using the FijI (ImageJ) software. As controls, wells with and without differentiation medium were also stained to set the baseline and contrast the differences and stainings of cells with only secondary antibodies were used as negative controls to assess cross-reactivity and background staining. For calculating the MYH4 median fluorescence intensity (MFI) images have been converted into 8-bit greyscale and a standard color threshold was applied (ImageJ). Next, MFI signals per area were measured using ImageJ and divided by the median background intensity (MBI). The nuclei fusion index was calculated as the ratio of nuclei fused per area divided by the total number of nuclei in the field. A minimum of three images has been recorded for the calculations, and two replicate experiments were conducted. For calculations of MFI and fusion index see Supplemental Table 5.

[1] = 10 µM, five days, DMSO ctrl = 100, experiments #1 and #2
[2] = 10 µM, five days, experiments #1 and #2
[3] = 10 µM, five days, experiments #1 and #2, listed as GSI

## COc1cccc(CNc2ccc(N3CCCCC3)cc2)c1OCc1cccs1 [compound C]
10 µM, five days
  expression of the differentiation marker MYH4: elevated expression
  MYH4 (MFI): 331.0
  fusion index, % of DMSO control: 268.7
[1]
  mean MFI in % of control: 343.9 % of control and 318.1 % of control
[2]
  mean MFI: 4.2
  ratio MFI/MBI: 4.0 and 4.4
  mean fusion index: 5.3
  ratio nuclei %: 3.3% and 7.3%
  myogenic diff.: yes
  myogenic assay: +

## CC(C)(C(=O)NCC(F)(F)C(F)(F)F)C(=O)N[C@@H]1C(=O)Nc2ccccc2-c2ccccc21 [RO4929097, reference compound]
10 µM, five days
  expression of the differentiation marker MYH4: elevated expression
10 µM, five days, DMSO ctrl = 100, experiments #1 and #2, listed as GSI
  mean MFI in % of control: 296.5 % of control and 351.1 % of control
[3]
  mean MFI: 5.5 and 3.6
  mean fusion index: 6.7 and 4.2
  ratio nuclei %: 6.3% and 6.4% and 7.6% and 4.9% and 3.4%
  myogenic diff.: yes

## NC(=O)c1c(NC(=O)NCc2cccnc2)sc2c1CCC2 [compound D]
10 µM, five days
  expression of the differentiation marker MYH4: did not produce elevated MYH4 levels
  MYH4 (MFI): 108.7
  fusion index, % of DMSO control: 153.2
  myogenic assay: -

## CC(C)(C)c1ccc(Oc2ccc(N)cn2)cc1 [CB-103, reference compound]
10 µM, five days
  expression of the differentiation marker MYH4: increased MYH4 levels, although not reaching statistical significance
[1]
  mean MFI in % of control: 378.0 % of control and 227.3 % of control
[2]
  mean MFI: 3.6 and 4.6
  mean fusion index: 5.7 and 3.1
  ratio nuclei %: 5.0% and 6.3% and 5.7% and 3.1%
  myogenic diff.: no

## Cc1nn(-c2nc3ccccc3s2)c(O)c1C1OC(=O)c2ccccc21 (stereo not shown) [compound E]
10 µM, five days
  expression of the differentiation marker MYH4: elevated expression
  MYH4 (MFI): 477.8
  fusion index, % of DMSO control: 290.1
[1]
  mean MFI in % of control: 561.7 % of control and 394.0 % of control
[2]
  mean MFI: 6.9 and 6.2
  ratio MFI/MBI: 6.3 and 6.7 and 7.6 and 5.1 and 6.8
  mean fusion index: 6.2 and 7.6
  ratio nuclei %: 5.9% and 6.4% and 6.2% and 7.9% and 6.8% and 8.0%
  myogenic assay: +

## CCc1c(C(=O)N(C)Cc2cnn(C(C)C)c2)[nH]c2ccccc12 [compound A]
10 µM, five days
  expression of the differentiation marker MYH4: elevated expression
  MYH4 (MFI): 476.6
  fusion index, % of DMSO control: 210.8
[1]
  mean MFI in % of control: 469.2 % of control
[2]
  mean MFI: 7.4 and 5.9
  ratio MFI/MBI: 6.1 and 6.4 and 7.3 and 7.5 and 5.2
  mean fusion index: 4.1 and 7.3
  ratio nuclei %: 2.9% and 4.4% and 7.7% and 8.1% and 6.0% and 5.0%
Mus musculus, C2C12, 120 h, 10 µM, five days, DMSO ctrl = 100, experiments #1 and #2, read-out: mean MFI in % of control
  activity at 10 µM: 484%
  myogenic assay: +

## Cc1ccc2[nH]c3c(c2c1)CCOC31CCN(Cc2ccccc2-c2ccccc2)CC1 [compound B]
  myogenic assay: -
